Reference: patent US20240293413A1, “COMPOUND AND METHOD FOR TREATING CHEMOTHERAPY-RELATED GASTROINTESTINAL SIDE EFFECTS” (ONQUALITY PHARMACEUTICALS CHINA LTD., priority 2021, published 2024)

Assays:
Format in all cases: in vivo
[1] = system: Chemotherapeutic agent-caused constipation models of Balb/c mice; assay: Examples 272-342 (Table 5): oral CDK inhibitor, relief of constipation caused by a chemotherapeutic agent;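 also: percent of treated mice relieved versus chemotherapy group by feces reduction rate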
Procedure, shortened: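 Feces reduction rate (%) = (control − treated)/control × 100%, based on the 3-hour feces amount recorded each day. Groups of 10 Balb/c mice received solvent, chemotherapeutic agent alone, or an oral CDK inhibitor before the chemotherapeutic agent.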

[2] = system: diarrhea caused by a chemotherapeutic agent in Balb/c mice; assay: Examples 343-381 (Table 6): oral versus intravenous CDK inhibitor, relief of diarrhea caused by a chemotherapeutic agent;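 also: percent of treated mice whose diarrhea grade fell below chemotherapy-group average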
Procedure, shortened: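 Balb/c mice (10 per group) received the CDK inhibitor orally or by tail-vein injection, or vehicle, followed by a chemotherapeutic agent or its solvent. Diarrhea grade was scored daily.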

[3] = system: constipation caused by a chemotherapeutic agent in Balb/c mice; assay: Examples 406-443 (Table 8): various administration modes of the CDK inhibitor, relief of constipation caused by a chemotherapeutic agent; conditions: for Relative remission rate of oral administration: CDK inhibitor oral 150 mg/kg single;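 as to all read-outs here: percent of treated mice relieved versus chemotherapy group by feces reduction rate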
Text: Balb/c mice were fed for 1 week, and then divided into groups. The experiment was divided into a control group, a chemotherapeutic agent group, CDK inhibitor groups (including an oral administration group of a CDK inhibitor, an intravenous injection group of a CDK inhibitor, an intraperitoneal injection group of a CDK inhibitor, an intramuscular injection group of a CDK inhibitor, a local administration group of a CDK inhibitor), each of which comprised 10 mice, to perform the administration experiment, for which the administration dosage, mode, time and frequency were shown in Table 8. The control group: being administered with the same solvent as that used in the CDK inhibitor group (the time and mode were shown in Table 8), and then being injected/intragastrically administered with the same solvent as that used in the chemotherapeutic agent group (the administration mode was shown in Table 8): the chemotherapeutic agent group: being administered with the same solvent as that used in the CDK inhibitor group (the time and mode were shown in Table 8), and then being injected/intragastrically administered with the chemotherapeutic agent (the type, administration mode and dosage were shown in Table 8): the oral administration group of the CDK inhibitor: being intragastrically administered with the CDK inhibitor (the time was shown in Table 8), and then being administered with the chemotherapeutic agent (the mode and dosage were shown in Table 8): the intravenous injection group of the CDK inhibitor: being injected with the CDK inhibitor through tail vein (the time was shown in Table 8), and then being administered with the chemotherapeutic agent (the mode and dosage were shown in Table 8): the intraperitoneal injection group of the CDK inhibitor: being intraperitoneally injected with the CDK inhibitor (the time was shown in Table 8), and then being administered with the chemotherapeutic agent (the mode and dosage were shown in Table 8): the intramuscular injection group of the CDK inhibitor: being intramuscularly injected with the CDK inhibitor (the time was shown in Table 8), and then being administered with the chemotherapeutic agent (the mode and dosage were shown in Table 8); and the local administration group of the CDK inhibitor: the hair on the abdomen of mice was shaved (about 2 cm*2 cm), being applied with the CDK inhibitor (the time was shown in Table 8), and then being administered with the chemotherapeutic agent (the mode and dosage were shown in Table 8).
Feces reduction rate (%)=(the control group−the chemotherapeutic agent group or the CDK inhibitor group)/the control group*100%
The feces amount of mice within 3 hours was observed and recorded every day.

## CCN1CCN(Cc2ccc(Nc3ncc(F)c(-c4cc(F)c5nc(C)n(C(C)C)c5c4)n3)nc2)CC1 [Abemaciclib]
[1]; Example 295, Fluorouracil (5-Fu) intramuscular injection 200 mg/kg single, CDK inhibitor oral 100 mg/kg single, 22 h before, cycle 7 days
  Relative remission rate: 60%
[1]; Example 296, Oxaliplatin intraperitoneal injection 20 mg/kg single, CDK inhibitor oral 100 mg/kg single, 0.5 h before, cycle 8 days
  Relative remission rate: 50%
[1]; Example 297, Oxaliplatin intraperitoneal injection 20 mg/kg single, CDK inhibitor oral 100 mg/kg single, 4 h before, cycle 8 days
  Relative remission rate: 40%
[1]; Example 298, Oxaliplatin intraperitoneal injection 20 mg/kg single, CDK inhibitor oral 100 mg/kg single, 8 h before, cycle 8 days
  Relative remission rate: 60%
[1]; Example 299, Oxaliplatin intraperitoneal injection 20 mg/kg single, CDK inhibitor oral 100 mg/kg single, 12 h before, cycle 8 days
  Relative remission rate: 60%
[1]; Example 300, Oxaliplatin intraperitoneal injection 20 mg/kg single, CDK inhibitor oral 100 mg/kg single, 24 h before, cycle 8 days
  Relative remission rate: 40%
[1]; Example 301, Oxaliplatin intraperitoneal injection 20 mg/kg single, CDK inhibitor oral 100 mg/kg single, 48 h before, cycle 8 days
  Relative remission rate: 0%
[1]; Example 312, Irinotecan (CPT-11) intravenous injection 260 mg/kg single, CDK inhibitor oral 150 mg/kg single, 14 h before, cycle 7 days
  Relative remission rate: 50%
[1]; Example 324, Gemcitabine and paclitaxel intraperitoneal injection 60 (G) 10 (P) mg/kg single, CDK inhibitor oral 150 mg/kg single, 24 h before, cycle 8 days
  Relative remission rate: 60%
[1]; Example 342, Methotrexate (MTX) intraperitoneal injection 300 mg/kg single, CDK inhibitor oral 150 mg/kg single, 8 h before, cycle 7 days
  Relative remission rate: 30%
[2]; Example 364, Carboplatin (CBP) intramuscular injection 150 mg/kg single, CDK inhibitor intravenous injection 150 mg/kg single, 8 h before, cycle 10 days
  Relative remission rate: 20%
[2]; Example 364, Carboplatin (CBP) intramuscular injection 150 mg/kg single, CDK inhibitor oral 150 mg/kg single, 8 h before, cycle 10 days
  Relative remission rate: 50%
[2]; Example 371, Gemcitabine (GEM) intraperitoneal injection 120 mg/kg single, CDK inhibitor intravenous injection 150 mg/kg single, 0.5 h before, cycle 8 days
  Relative remission rate: 10%
[2]; Example 371, Gemcitabine (GEM) intraperitoneal injection 120 mg/kg single, CDK inhibitor oral 150 mg/kg single, 0.5 h before, cycle 8 days
  Relative remission rate: 30%
[2]; Example 372, Gemcitabine (GEM) intraperitoneal injection 120 mg/kg single, CDK inhibitor intravenous injection 150 mg/kg single, 4 h before, cycle 8 days
  Relative remission rate: 10%
[2]; Example 372, Gemcitabine (GEM) intraperitoneal injection 120 mg/kg single, CDK inhibitor oral 150 mg/kg single, 4 h before, cycle 8 days
  Relative remission rate: 30%
[2]; Example 373, Gemcitabine (GEM) intraperitoneal injection 120 mg/kg single, CDK inhibitor intravenous injection 150 mg/kg single, 8 h before, cycle 8 days
  Relative remission rate: 20%
[2]; Example 373, Gemcitabine (GEM) intraperitoneal injection 120 mg/kg single, CDK inhibitor oral 150 mg/kg single, 8 h before, cycle 8 days
  Relative remission rate: 50%
[2]; Example 374, Gemcitabine (GEM) intraperitoneal injection 120 mg/kg single, CDK inhibitor intravenous injection 150 mg/kg single, 12 h before, cycle 8 days
  Relative remission rate: 20%
[2]; Example 374, Gemcitabine (GEM) intraperitoneal injection 120 mg/kg single, CDK inhibitor oral 150 mg/kg single, 12 h before, cycle 8 days
  Relative remission rate: 50%
[2]; Example 375, Gemcitabine (GEM) intraperitoneal injection 120 mg/kg single, CDK inhibitor intravenous injection 150 mg/kg single, 24 h before, cycle 8 days
  Relative remission rate: 10%
[2]; Example 375, Gemcitabine (GEM) intraperitoneal injection 120 mg/kg single, CDK inhibitor oral 150 mg/kg single, 24 h before, cycle 8 days
  Relative remission rate: 40%
[3]; Example 429, Carboplatin intravenous injection 120 mg/kg single, CDK inhibitor intramuscular injection 150 mg/kg single, 8 h before, cycle 10 days
  Relative remission rate of other administration mode: 20%
[3]; Example 429, Carboplatin intravenous injection 120 mg/kg single, 8 h before, cycle 10 days
  Relative remission rate of oral administration: 60%
[3]; Example 430, Gemcitabine intraperitoneal injection 120 mg/kg single, CDK inhibitor intraperitoneal injection 150 mg/kg single, 0.5 h before, cycle 8 days
  Relative remission rate of other administration mode: 10%
[3]; Example 430, Gemcitabine intraperitoneal injection 120 mg/kg single, 0.5 h before, cycle 8 days
  Relative remission rate of oral administration: 40%
[3]; Example 431, Gemcitabine intraperitoneal injection 120 mg/kg single, CDK inhibitor intraperitoneal injection 150 mg/kg single, 4 h before, cycle 8 days
  Relative remission rate of other administration mode: 10%
[3]; Example 431, Gemcitabine intraperitoneal injection 120 mg/kg single, 4 h before, cycle 8 days
  Relative remission rate of oral administration: 40%
[3]; Example 432, Gemcitabine intraperitoneal injection 120 mg/kg single, CDK inhibitor intraperitoneal injection 150 mg/kg single, 8 h before, cycle 8 days
  Relative remission rate of other administration mode: 10%
[3]; Example 432, Gemcitabine intraperitoneal injection 120 mg/kg single, 8 h before, cycle 8 days
  Relative remission rate of oral administration: 40%
[3]; Example 433, Gemcitabine intraperitoneal injection 120 mg/kg single, CDK inhibitor intraperitoneal injection 150 mg/kg single, 12 h before, cycle 8 days
  Relative remission rate of other administration mode: 20%
[3]; Example 433, Gemcitabine intraperitoneal injection 120 mg/kg single, 12 h before, cycle 8 days
  Relative remission rate of oral administration: 60%
[3]; Example 434, Gemcitabine intraperitoneal injection 120 mg/kg single, CDK inhibitor intraperitoneal injection 150 mg/kg single, 24 h before, cycle 8 days
  Relative remission rate of other administration mode: 20%
[3]; Example 434, Gemcitabine intraperitoneal injection 120 mg/kg single, 24 h before, cycle 8 days
  Relative remission rate of oral administration: 60%
